From patent publication US11110067B2 (THE BOARD OF REGENTS OF THE UNIVERSITY OF TEXAS SYSTEM, priority 2008, dated 2021)

Tests used:
[1] = test system: genetically heterogeneous mice; test: Lifespan of mice fed test agents in the diet (Cohort 2005; rapamycin from 600 days of age); conditions: for Survival compared with controls: added to the diet at 4 months of age, enalapril 120 mg/kg food, CAPE 30 or 300 mg/kg food; for Effect size expressed as life expectancy at 600 days / Effect size expressed as mean lifespan: pooled data set
Text: Mice were produced at each of the three test sites by mating CB6F1 females with C3D2F1 males to produce a genetically heterogeneous population. […] Each test site enrolled approximately equal numbers of 19-21 day-old weanlings each month over a six month period, housing 3 males or 4 females/cage. Each site used diets that the manufacturer claimed were based on the NIH-31 standard for breeding cages and the period between weaning and the initiation of experimental diets, as follows: For breeding cages, UM used Purina 5008, UT used Teklad 7912, and TJL used Purina 5K52. For weanlings prior to 4 months of age, UM used Purina 5008, UT used Teklad 7912, and TJL used Purina 5LG6. Starting when 4 months old, mice in the Control, Enalapril, and CAPE groups received Purina 5LG6 at all three sites, without additives (control group) or with the test agent. […] The principal endpoint was age at death (for mice found dead at daily inspections) or age at euthanasia (for mice deemed unlikely to survive for more than an additional 48 h).
The Cohort 2005 study population, distributed almost equally among the three test sites, consisted initially of 1960 mice, of which 674 were assigned to the control group and 317 to 328 to each of the four treatment groups. Of these, 51 mice were removed from the study because of fighting (31 mice), accidental death (such as chip implantation or cage flooding; 13 mice), or because of technical error (error in gender assignment or diet selection; 7 mice). For survival analyses, mice were treated as alive at the date of their removal from the protocol, and lost to follow-up thereafter. These censored mice were not included in calculations of median longevity.
Mice were examined at least daily for signs of ill health, and were euthanized for humane reasons if they were so severely moribund that they were considered, by an experienced technician, unlikely to survive for more than an additional 48 hrs. […] The age at which a moribund mouse was euthanized was taken as the best available estimate of its natural lifespan. Mice found dead were also noted at each daily inspection.
TestDiet, Inc. (Richmond, Ind.) prepared batches of Purina 5LG6 food containing each of the test substances, as well as control diet batches, at intervals of approximately 120 days, and shipped each batch of food at the same time to each of the three test sites. Enalapril was purchased from Sigma (catalogue E6888-5G) and used at 120 mg per kg food; on the assumption that the average mouse weighs 30 gm and consumes 5 gm of food/day, this dose supplies 20 mg enalapril per kg body weight/day. CAPE, i.e. caffeic acid phenethyl ester, was purchased from Cayman (Ann Arbor, Mich.; Catalogue 70750), and used at either of two doses: the high dose was 300 mg/kg food (50 mg/kg body weight/day), and the low dose was 30 mg/kg food (5 mg/kg body weight/day).

[2] = Body weight of rapamycin-fed mice; assay type: in vivo, mouse
[3] = test system: phosphorylation of ribosomal protein S6 (Ser240/244), a substrate of S6 kinase 1; test: Immunoblot of rpS6 phosphorylation in tissue lysates; assay type: in vivo, mouse; conditions: visceral white adipose tissue; fed from 270 to about 800 days of age
Protocol: Signal intensities for each immunoblot were captured using a Kodak Image Station, which were analysed using Kodak 1D image analysis software.

HET3 mice = test: Glucose tolerance on high fat diet; assay type: in vivo, mouse; conditions: HET3 mice fed a high fat diet
[4] = Pong and Zaleska, 2003; cited from earlier work
[5] = test system: Aβ / APP in brains of 3×Tg-AD mice; test: APP Western blots, Aβ ELISA and immunohistochemistry in brain, 3xTg-AD mice; assay type: in vivo, mouse; conditions: ELISA
Protocol: (§1) Tissue was processed and analyzed as described previously 13, 25, 26 and is described in detail in Supplementary Information. Aβ and tau were measured using specific ELISAs.
3×Tg-AD mice were sacrificed by CO2 asphyxiation. The brains were extracted and cut in-half sagitally and tissue was processed as described (Oddo et al., 2008). The hAPP(J20) mice were euthanized by isoflurane overdose. Hemibrains were flash frozen. One hemibrain was homogeneized in liquid N2 while the other was used in immunohistochemical determinations. For Western blot analyses, proteins from both hAPP(J20) and 3×Tg-AD soluble fractions were resolved by SDS/PAGE (Invitrogen, Temecula, Calif.) under reducing conditions and transferred to a nitrocellulose or PVDF membrane. The membrane was incubated in a 5% solution of non-fat milk or in 5% BSA for 1 hour at 20° C. […] Aβ40 and Aβ42 levels were measured from the soluble and insoluble fractions using a sandwich ELISA protocol as described previously (Oddo et al., 2005). Aβ40 and Aβ42 in hAPP(J20) mice were quantitated in guanidine homogenates of Tg hAPP(J20) hemibrains as described (Galvan et al., 2006) using specific ELISA assays (Invitrogen, Carlsbad, Calif.). […]

[6] = test system: Aβ / APP in brains of hAPP(J20) mice; test: APP Western blots and Aβ ELISA in brain, hAPP(J20) mice; assay type: in vivo, mouse
Protocol: as §1
3×Tg-AD mice were sacrificed by CO2 asphyxiation. The brains were extracted and cut in-half sagitally and tissue was processed as described (Oddo et al., 2008). The hAPP(J20) mice were euthanized by isoflurane overdose. Hemibrains were flash frozen. One hemibrain was homogeneized in liquid N2 while the other was used in immunohistochemical determinations. For Western blot analyses, proteins from both hAPP(J20) and 3×Tg-AD soluble fractions were resolved by SDS/PAGE (Invitrogen, Temecula, Calif.) under reducing conditions and transferred to a nitrocellulose or PVDF membrane. The membrane was incubated in a 5% solution of non-fat milk or in 5% BSA for 1 hour at 20° C. […] Aβ40 and Aβ42 levels were measured from the soluble and insoluble fractions using a sandwich ELISA protocol as described previously (Oddo et al., 2005). Aβ40 and Aβ42 in hAPP(J20) mice were quantitated in guanidine homogenates of Tg hAPP(J20) hemibrains as described (Galvan et al., 2006) using specific ELISA assays (Invitrogen, Carlsbad, Calif.).

O=C(/C=C/c1ccc(O)c(O)c1)OCCc1ccccc1 [CAPE, caffeic acid phenethyl ester]
Survival compared with controls [1]: did not differ from controls

CCOC(=O)[C@H](CCc1ccccc1)N[C@@H](C)C(=O)N1CCC[C@H]1C(=O)O [enalapril]
Survival compared with controls [1]: did not differ from controls

CO[C@H]1C[C@@H]2CC[C@@H](C)[C@@](O)(O2)C(=O)C(=O)N2CCCC[C@H]2C(=O)O[C@H]([C@H](C)C[C@@H]2CC[C@@H](O)[C@H](OC)C2)CC(=O)[C@H](C)/C=C(\C)[C@@H](O)[C@@H](OC)C(=O)[C@H](C)C[C@H](C)/C=C/C=C/C=C/1C [rapamycin, (3S,6R,7E,9R,10R,12R,14S,15E,17E,19E,21S,23S,26R,27R,34aS)-9,10,12,13,14,21,22,23,24,25,26,27,32,33,34,34a-hexadecahydro-9,27-dihydroxy-3-[(1R)-2-[(1S,3R,4R)-4-hydroxy-3-methoxycyclohexyl]-1-methylethyl]-10,21-dimethoxy-6,8,12,14,20,26-hexamethyl-23,27-epoxy-3H-pyrido[2,1-c][1,4]oxaazacyclohentria-contine-1,5,11,28,29 (4H,6H,31H)-pentone]
Body weight ([2]; high fat diet, 12 weeks of feeding): No difference
Body weight ([2]; mouse, in vivo): No effect
Reduction of levels of phosphorylated rpS6 [3]: 4-5 fold
Increase of life expectancy at 600 days ([1]; females, TJL): 45%
Mean lifespan increase ([1]; females, TJL): 15%
Percentage increase of age at 90th percentile versus controls ([1]; females, TJL): 17%
% Live at the 90th percentile age of the joint distribution ([1]; females, TJL, age 1167 days): 22.9%
Number alive at the 90th percentile age ([1]; females, TJL, age 1167 days): 11
Number dead at the 90th percentile age ([1]; females, TJL, age 1167 days): 37
Increase of life expectancy at 600 days ([1]; females, UM): 48%
Mean lifespan increase ([1]; females, UM): 16%
Percentage increase of age at 90th percentile versus controls ([1]; females, UM): 14%
% Live at the 90th percentile age of the joint distribution ([1]; females, UM, age 1162 days): 27.1%
Number alive at the 90th percentile age ([1]; females, UM, age 1162 days): 13
Number dead at the 90th percentile age ([1]; females, UM, age 1162 days): 35
Increase of life expectancy at 600 days ([1]; females, UT): 22%
Mean lifespan increase ([1]; females, UT): 7%
Percentage increase of age at 90th percentile versus controls ([1]; females, UT): 8%
% Live at the 90th percentile age of the joint distribution ([1]; females, UT, age 1123 days): 14.6%
Number alive at the 90th percentile age ([1]; females, UT, age 1123 days): 7
Number dead at the 90th percentile age ([1]; females, UT, age 1123 days): 41
Percentage increase of age at 90th percentile versus controls ([1]; females, all sites): 14%
Effect size expressed as life expectancy at 600 days ([1]; females): 38%
Effect size expressed as mean lifespan ([1]; females): 13%
% Live at the 90th percentile age of the joint distribution ([1]; females, pooled sites): 21.5%
Number alive at the 90th percentile age ([1]; females, pooled sites): 31
Number dead at the 90th percentile age ([1]; females, pooled sites): 113
% Live at the 90th percentile age of the joint distribution ([1]; females, pooled sites, listed as Rapa): 21.5%
Increase of life expectancy at 600 days ([1]; males, TJL): 16%
Mean lifespan increase ([1]; males, TJL): 5%
Percentage increase of age at 90th percentile versus controls ([1]; males, TJL): 10%
% Live at the 90th percentile age of the joint distribution ([1]; males, TJL, age 1088 days): 19.3%
Number alive at the 90th percentile age ([1]; males, TJL, age 1088 days): 11
Number dead at the 90th percentile age ([1]; males, TJL, age 1088 days): 46
Increase of life expectancy at 600 days ([1]; males, UM): 23%
Mean lifespan increase ([1]; males, UM): 8%
Percentage increase of age at 90th percentile versus controls ([1]; males, UM): 4%
% Live at the 90th percentile age of the joint distribution ([1]; males, UM, age 1154 days): 17.6%
Number alive at the 90th percentile age ([1]; males, UM, age 1154 days): 9
Number dead at the 90th percentile age ([1]; males, UM, age 1154 days): 42
Increase of life expectancy at 600 days ([1]; males, UT): 52%
Mean lifespan increase ([1]; males, UT): 15%
Percentage increase of age at 90th percentile versus controls ([1]; males, UT): 16%
% Live at the 90th percentile age of the joint distribution ([1]; males, UT, age 1112 days): 23.3%
Number alive at the 90th percentile age ([1]; males, UT, age 1112 days): 14
Number dead at the 90th percentile age ([1]; males, UT, age 1112 days): 48
Percentage increase of age at 90th percentile versus controls ([1]; males, all sites): 9%
Effect size expressed as life expectancy at 600 days ([1]; males): 28%
Effect size expressed as mean lifespan ([1]; males): 9%
% Live at the 90th percentile age of the joint distribution ([1]; males, pooled sites): 20.2%
Number alive at the 90th percentile age ([1]; males, pooled sites): 34
Number dead at the 90th percentile age ([1]; males, pooled sites): 134
% Live at the 90th percentile age of the joint distribution ([1]; males, pooled sites, listed as Rapa): 20.2%
Glucose tolerance (HET3 mice): causes glucose intolerance
Blood brain barrier passage [4]: readily crosses the blood brain barrier
Decrease of soluble Aβ42 levels [5]: 32.78±6.68%
Decrease of soluble Aβ42 levels [6]: 52.35±13.14%
